Laboratory results taken from patent US8686049B2, “Agent for increasing testosterone level” (Tohoku University, priority 2006, dated 2014).

Key:
[1] = person per day; cited from earlier work
[2] = Testis vitamin K analog concentration by HPLC-reduction fluorescence, Example 1 (35-day diet); assay type: in vivo, rat; details: rats, diet with MK-4 75 mg/kg for 35 days, vs low K and control dietary groups (FIG. 1)
Experimental: Experimental animals: ordinary rats (Wistar/Std, eight-week-old males)
(§1) In the breeding method, preparatory breeding was performed in which the rats have free access to feed and water for three to five days. A commercially-available solid feed (product name: MR Labostock by Nosan Corp.) was used. Each experimental diet group includes four rats that were colony-bred in a wire mesh cage. After the preparatory breeding, the rats were fed respective experimental diets and bred for 35 days with free access to feed and water. Blood samples were taken, and testes were removed.
One gram of tissue was precisely measured and placed in a stoppered brown centrifuge tube. Two milliliters of 66% IPA solution was added. The sample was then homogenized in a Polytron homogenizer (Biotron) on ice. […]
The vitamin K homologues in the prepared HPLC sample are non-fluorescent, oxidized types. […] Quantities of the vitamin K groups were determined by an HPLC-reduction fluorescence method that measures fluorescence intensity of the sample. The vitamin K groups were determined as a relative value of MK-3 that was the internal standard.
In the method, the HPLC-reduction fluorescence method is used in which the non-fluorescent, oxidized type vitamin K groups become fluorescent, reduced types through use of the platinum catalyst column. The fluorescence intensity of the vitamin K groups was measured. […]

P450scc = P450scc protein level in testis by Western blot, Example 1; assay type: in vivo; details: rat testis, diet with MK-4 75 mg/kg for 35 days, vs control dietary group (FIG. 3)
Experimental: as §1
Testes of each of the above-described group that had been stored at −80° C. after dissection were used. Anti-P450scc antibodies were purchased from Chemicon International, Inc.
While being iced in 1 ml of 1× Phosphate buffered saline (PBS, including 10 μl of 100 mM phenyl methane sulfonyl fluoride [PMSF]), 0.2 g of testes were homogenized in the Polytron homogenizer (Biotron). […] A portion of the tissue homogenate was used to determine the quantity of protein. […]
One milliliter of ECLTM Western blotting detection reagent (Amersham Corp.) was poured over the entire membrane. […] Luminescent signals were picked up by an Las-1000 Imaging System (Fujifilm Corp.) and quantity was determined using ImageGauge (trademark) image processing software.
Protein concentration in the tissue homogenates was measured by the Bradford method. […]

[3] = Weight and diet intake of rats on experimental diets, Example 2; assay type: in vivo, rat; details: 75 mg/kg in diet, 35 days; for differences in weight: vs control dietary group (FIG. 5); for differences in diet intake: vs control dietary group (FIG. 6)
Experimental: (§2) As in Example 1, the experimental animals and breeding conditions were ordinary rats (Wistar/Std, eight-week-old males) bred in a breeding room set to a temperature of 23° C., humidity of 50±5%, and a 12-hour light/dark cycle in which lights were turned on at 8 AM and turned off at 8 PM.
(§3) The breeding period was 35 days. Blood was drawn from tail veins every week at 18 o'clock. Measurements of weight, diet intake, testis vitamin K content, testis testosterone concentration, and plasma testosterone concentration were taken. The analysis method was similar to that in Example 1.

[4] = Testis vitamin K concentration, Example 2; assay type: in vivo, rat; details: rats, 75 mg/kg in diet, 35 days (FIG. 7), P<0.05
Experimental: as §2, §3
Data on testis vitamin K concentration and testosterone concentration was analyzed using the Tukey method. Analysis of changes over time in the blood testosterone concentrations was performed by two-way layout analysis of variance (repeated). In all cases, significant differences was P<0.05.

| MK-4 concentration in the testes [2] | Compound | tolerable upper intake level [1] | P450scc protein level (P450scc) | differences in weight [3] | differences in diet intake [3] | testis MK-4 concentration [4] |
| --- | --- | --- | --- | --- | --- | --- |
| – | Vitamin K | 30 mg | – | – | – | – |
| significantly high | CC(C)=CCC/C(C)=C/CC/C(C)=C/CC/C(C)=C/CC1=C(C)C(=O)c2ccccc2C1=O [MK-4, menaquinone-4] | – | significantly higher | could not be observed | could not be observed | significantly increased |
| – | CC1=C(C/C=C(\C)CCC[C@H](C)CCC[C@H](C)CCCC(C)C)C(=O)c2ccccc2C1=O [vitamin K1, phylloquinone] | – | – | could not be observed | could not be observed | significantly increased |
